Data: patent US7056685B1, “Receptor ligands and methods of modulating receptors” (Amgen Inc., priority 2002, dated 2006)
“Also recorded” adds a separate entry of the source.

Assays:
[1] = molecular target: T1, GPR43 (Homo sapiens, UniProt O15552); test: GPR43 activation by fatty acids (FIG. 2); format: cell-based; conditions: for concentration at which GPR43 is activated: FIG. 2
T1 sequence (O15552 1-330): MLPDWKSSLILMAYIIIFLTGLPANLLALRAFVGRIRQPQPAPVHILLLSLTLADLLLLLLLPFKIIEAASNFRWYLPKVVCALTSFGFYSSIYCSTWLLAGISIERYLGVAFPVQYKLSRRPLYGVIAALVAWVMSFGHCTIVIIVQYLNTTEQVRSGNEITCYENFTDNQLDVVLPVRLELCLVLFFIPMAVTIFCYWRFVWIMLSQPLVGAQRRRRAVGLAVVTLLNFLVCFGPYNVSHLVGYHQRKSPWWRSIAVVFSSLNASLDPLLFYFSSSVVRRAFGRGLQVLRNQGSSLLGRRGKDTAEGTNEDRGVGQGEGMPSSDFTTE
Source text: An activated or inhibited G-protein will in turn alter the properties of downstream effectors such as proteins, enzymes, and channels. The classic examples are the activation of cGMP phosphodiesterase by transducin in the visual system, adenylate cyclase by the stimulatory G-protein, phospholipase C by Gq and other cognate G proteins, and modulation of diverse channels by Gi and other G proteins. Downstream consequences such as generation of diacyl glycerol and IP3 by phospholipase C, and in turn, for calcium mobilization e.g., by IP3 (further discussed below) can also be examined. Thus, modulators can be evaluated for the ability to stimulate or inhibit ligand-mediated downstream effects. […] Candidate modulators may be assessed for the ability to inhibit inositol phosphate accumulation and/or calcium mobilization induced by the natural ligand, e.g., β-alanine (TGR2), a 2–3 carbon chain fatty acid (GPR43), a medium or long chain fatty acid (GPR40), succinic acid (TGR18), or a-ketoglutaric acid (TGR164).
A battery of fatty acids were tested for the ability to activate GPR43.

[2] = molecular target: T2, TGR18 (Homo sapiens, UniProt Q9BXA5); test: Inositol phosphate accumulation assay, 293 cells stably expressing TGR18; format: cell-based; parameters: expressed in transfected cells; transient for CRE-luciferase; conditions: 45 minutes stimulation
T2 sequence (Q9BXA5 with tags, fused parts or gaps limits assumed): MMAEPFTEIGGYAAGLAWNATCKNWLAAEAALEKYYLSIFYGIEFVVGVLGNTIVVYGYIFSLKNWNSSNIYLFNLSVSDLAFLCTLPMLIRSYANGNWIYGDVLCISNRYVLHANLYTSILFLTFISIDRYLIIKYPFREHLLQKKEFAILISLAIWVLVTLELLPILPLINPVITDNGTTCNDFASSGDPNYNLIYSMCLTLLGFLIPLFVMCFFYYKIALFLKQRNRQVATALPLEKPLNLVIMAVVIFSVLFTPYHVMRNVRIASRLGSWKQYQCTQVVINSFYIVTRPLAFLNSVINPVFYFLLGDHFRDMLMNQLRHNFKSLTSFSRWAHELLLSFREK
Method: The ability of various ligands to increase inositol phosphate was also assessed. For this analysis, 293 cells stably expression TGR18 were incubated in inositol-free DMEM/10% dialyzed FCS/1 μCi/ml ^3H-inositol for 16 hours. Following incubation 10 mM LiCi was added to the cells for 15 minutes. Cells were then stimulated with various ligands for 45 minutes and extracted with ice-cold 20 mM formic acid. H3-inositol phosphate was collected on Dowex ion-exchange column (formate form) and radioactivity recorded by Topcount scintillation counter.

[3] = molecular target: T3, TGR164 (Homo sapiens, UniProt Q96P68); test: Aequorin assay, TGR164; format: cell-based; conditions: for activation of TGR164 in Aequorin assay: FIGS. 7A and 7B
T3 construct: expressed in transfected cells; also 'various cell lines'

[4] = molecular target: T3, TGR164; test: Inositol phosphate accumulation assay, TGR164; format: cell-based
[5] = molecular target: T2, TGR18; test: FLIPR intracellular calcium assay, 293 cells stably expressing TGR18; format: cell-based; parameters: expressed in transfected cells; transient for CRE-luciferase; conditions: for activation of TGR18 in FLIPR assay: FIG. 6C
Method: Mobilization of intracellular calcium in response to various ligands was also evaluated using a FLIPR assay. In this assay, 293 cells stably expressing TGR18 were seeded into 384-well plates and incubated at 37° C. overnight. The growth medium was then aspirated and replaced with 50 μl loading medium (FLIPR no-wash kit, Molecular Devices) and incubated at 37° C. for 1 hour. The cells were placed in a fluorometric imaging plate reader (FLIPR), and changes in cellular fluorescence were recorded after the addition of 25 μl of various ligands diluted in FLIPR buffer (FLIPR no-wash kit, Molecular Devices). Analogs of succinic acid that activated TGR18 include succinic acid, maleic acid, oxalacetic acid, methylmalonic acid and itaconic acid (FIG. 6C).

[6] = molecular target: Human TGR18 (Homo sapiens, UniProt Q9BXA5); conditions: FIG. 6A
Method: (§1) In order to examine the ability of a compound to activate TGR18, CHO cells were transiently transfected with 10 μg of the GPCR and 10 μg Aequorin reporter gene in a 150 mm dish. As a negative control, the same amount of empty vector and the Aequorin reporter were cotransfected into CHO cells. After 24 hours, cells were harvested and resuspended in Aequorin buffer (Hank's buffered saline with 20 mM Hepes, pH7.6 and 0.1% BSA) containing 1 μg/ml coelenterazine f and incubated at room temperature for a further 2 hours. The Aequorin luminescence was recorded on Microlumat after injecting 100 μl of cells into 100 μl of ligand prepared in Aequorin buffer.

[7] = molecular target: mouse TGR18 (Mus musculus, UniProt Q99MT6); conditions: FIG. 6A
Chain of mouse TGR18 (Q99MT6 whole entry): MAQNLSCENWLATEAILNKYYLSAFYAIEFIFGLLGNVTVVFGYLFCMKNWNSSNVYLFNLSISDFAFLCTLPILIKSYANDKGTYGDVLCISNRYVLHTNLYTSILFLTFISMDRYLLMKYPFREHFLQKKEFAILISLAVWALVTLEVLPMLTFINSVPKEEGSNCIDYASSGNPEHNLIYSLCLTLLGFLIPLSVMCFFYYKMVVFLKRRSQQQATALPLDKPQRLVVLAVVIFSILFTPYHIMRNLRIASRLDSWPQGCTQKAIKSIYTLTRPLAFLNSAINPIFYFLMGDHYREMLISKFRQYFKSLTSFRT
Method: as §1

[8] = molecular target: rat TGR18 (Rattus norvegicus, UniProt Q6IYF9); conditions: FIG. 6A
Chain of rat TGR18 (Q6IYF9 whole entry): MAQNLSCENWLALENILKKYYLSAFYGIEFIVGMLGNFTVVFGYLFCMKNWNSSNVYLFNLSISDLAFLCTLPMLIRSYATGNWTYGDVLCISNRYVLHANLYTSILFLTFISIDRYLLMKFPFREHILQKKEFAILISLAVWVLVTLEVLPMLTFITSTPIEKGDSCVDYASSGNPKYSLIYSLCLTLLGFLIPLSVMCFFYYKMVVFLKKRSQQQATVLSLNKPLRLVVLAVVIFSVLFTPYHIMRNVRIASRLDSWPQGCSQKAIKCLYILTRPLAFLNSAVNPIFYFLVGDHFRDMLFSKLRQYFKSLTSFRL
Method: as §1

[9] = test system: thirty other GPCRs; conditions: at 100 μM
Method: as §1

[10] = molecular target: T2, TGR18; conditions: 293 cells; 6 hours
Method: The ability of a ligand to induce TGR18-mediated activation of a CRE-luciferase reporter was also evaluated. For this assay, 293 cells were transiently transfected with CRE-luciferase reporter, tk-renila luciferase reporter and TGR18 plasmid. Succinic acid was then added to the cell culture supernatants and incubated for a further 6 hours. The luminescence were recorded on CLIPR after cell lysis as illustrated in Dual-luciferase assay kit (Promega).

[11] = molecular target: T2, TGR18; test: TGR18 ligand activity, assay not specified (introduction); format: cell-based; parameters: expressed in transfected cells; transient for CRE-luciferase
[12] = test system: 40 other orphan GPCRs; conditions: at 10 μM
[13] = molecular target: T4, TGR2 (Homo sapiens, UniProt Q8TDS7)
T4 sequence (Q8TDS7 whole entry): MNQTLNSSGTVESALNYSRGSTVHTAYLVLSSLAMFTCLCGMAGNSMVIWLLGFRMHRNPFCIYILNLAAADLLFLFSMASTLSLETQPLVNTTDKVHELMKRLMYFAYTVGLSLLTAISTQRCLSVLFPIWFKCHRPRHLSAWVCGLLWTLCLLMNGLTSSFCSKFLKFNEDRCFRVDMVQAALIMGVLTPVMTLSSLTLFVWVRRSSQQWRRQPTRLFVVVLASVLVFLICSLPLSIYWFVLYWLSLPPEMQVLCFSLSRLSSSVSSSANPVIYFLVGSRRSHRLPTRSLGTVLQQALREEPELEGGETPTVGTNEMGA

[14] = molecular target: mMrgD (Mus musculus, UniProt Q91ZB8)
Chain of mMrgD (Q91ZB8 whole entry): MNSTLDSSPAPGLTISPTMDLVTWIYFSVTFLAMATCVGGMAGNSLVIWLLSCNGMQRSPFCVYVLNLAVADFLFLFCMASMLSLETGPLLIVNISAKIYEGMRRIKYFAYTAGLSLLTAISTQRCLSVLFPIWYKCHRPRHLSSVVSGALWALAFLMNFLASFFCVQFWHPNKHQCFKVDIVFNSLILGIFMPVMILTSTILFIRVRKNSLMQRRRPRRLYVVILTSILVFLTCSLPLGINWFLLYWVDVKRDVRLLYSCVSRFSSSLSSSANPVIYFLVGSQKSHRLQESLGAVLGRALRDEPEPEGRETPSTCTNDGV

[15] = molecular target: T4, TGR2; test: Aequorin assay, CHO cells transiently transfected with TGR2; format: cell-based; parameters: expressed in transfected cells; host or cells: CHO cells, transient
[16] = molecular target: T5, GPR77 (Homo sapiens, UniProt Q9P296); test: Competitive binding assay, membrane binding format, cells transiently transfected with GPR77
T5 construct: expressed in transfected cells
T5 sequence (Q9P296 whole entry): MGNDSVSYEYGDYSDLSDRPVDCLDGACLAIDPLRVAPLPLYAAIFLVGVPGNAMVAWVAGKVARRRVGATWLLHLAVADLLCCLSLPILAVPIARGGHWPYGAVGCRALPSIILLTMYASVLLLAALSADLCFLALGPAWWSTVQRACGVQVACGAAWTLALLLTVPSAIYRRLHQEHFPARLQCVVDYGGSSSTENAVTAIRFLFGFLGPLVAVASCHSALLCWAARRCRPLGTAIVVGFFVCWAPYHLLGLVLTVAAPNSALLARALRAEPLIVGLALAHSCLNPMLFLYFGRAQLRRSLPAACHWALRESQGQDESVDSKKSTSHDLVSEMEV
Source text: GPR77 was transiently transfected into cells.

## CC(=O)O [acetate]
[1]
  concentration at which GPR43 is activated: about 140 μM

## O=C(O)/C=C/C(=O)O [fumaric acid]
[2]
  increase of inositol phosphate levels, TGR18: did not

## CCCCCCC(=O)O [heptanoeate]
[1]
  activation of GPR43: do not activate

## C=C(CC(=O)O)C(=O)O [itaconic acid]
[3]
  activation of TGR164 in Aequorin assay: activated
[4]
  inositol phosphate accumulation, TGR164: observed
[5]
  activation of TGR18 in FLIPR assay: activated

## O=C(O)/C=C\C(=O)O [maleic acid]
[5]
  activation of TGR18 in FLIPR assay: activated

## CC(C(=O)O)C(=O)O [methylmalonic acid]
[5]
  activation of TGR18 in FLIPR assay: activated

## CCCCCCCC(=O)O [octanoate]
[1]
  activation of GPR43: do not activate

## O=C(O)CC(=O)C(=O)O [oxalacetic acid]
[5]
  activation of TGR18 in FLIPR assay: activated

## CCCCC(=O)O [pentanoate]
[1]
  activation of GPR43: do not activate

## CCC(=O)O [propionate]
[1]
  concentration at which GPR43 is activated: about 140 μM

## O=C(O)CCC(=O)O [succinic acid]
[6]
  activation of human TGR18 in Aequorin assay: activated
[7]
  activation of mouse TGR18 in Aequorin assay: activated
[8]
  activation of rat TGR18 in Aequorin assay: activated
[9]
  activation of thirty other GPCRs: does not activate
[10]
  TGR18-mediated activation of CRE-luciferase reporter: induced
[5]; 293 cells stably expressing TGR18, FIG. 6B, read-out: EC50 of TGR18 activation in FLIPR assay
  EC50: ~27 µM
[5]
  activation of TGR18 in FLIPR assay: activated
[2]
  increase of inositol phosphate levels, TGR18: increased inositol phosphate levels

## O=C1CCC(=O)O1 [succinic anhydride]
[11]
  ligand for / activation of TGR18: ligands for TGR18

## O=C(O)CCC(=O)C(=O)O [α-ketoglutaric acid]
[3]
  activation of TGR164 in Aequorin assay: TGR164 ligand
[3]; multiple cell lines
  activation of TGR164 in Aequorin assays in multiple cell lines: activates
[4]
  inositol phosphate accumulation, TGR164: observed

## NCCC(=O)O [β-alanine]
[12]
  activation of 40 other orphan GPCRs: did not activate
[13]
  activation of TGR2 in inositol phosphate accumulation assay: activated
[14]
  activation of mouse ortholog mMrgD in Aequorin assay: specifically activated
[15]; CHO cells transiently transfected with TGR2, FIG. 1
  EC50: 9.1 µM
[15]; at 10 μM
  activation of TGR2 (increase in intracellular calcium), library screen: positive hit

## ASP: Acylation stimulating protein, identical to the desarginated form of complement C3a, i.e., C3adesArg
[16]
  binding to GPR77, competition with C5a and C3a: shown to bind to GPR77; also recorded: competed with C5a and C3a
